According to ChEMBL document CHEMBL3046094, “Predicting anti-HIV activity of 1,1,3-trioxo[1,2,4]-thiadiazine (TTD) derivatives: 3D QSAR approach” (Med Chem Res, 2009):

Tested on: Human immunodeficiency virus 1
Assay: Antiviral activity against Human immunodeficiency virus 1 infected human MT4 cells assessed as inhibition of virus-induced cytopathic effect by MTT assay
Format: functional, organism-based
Details: Human immunodeficiency virus 1, MT4

| Structure (SMILES) | EC50 [nM] |
| --- | --- |
| N#CCN1C(=O)N(Cc2cccc(Cl)c2)S(=O)(=O)c2cscc21 | 100 |
| N#CCN1C(=O)N(Cc2cccc(F)c2)S(=O)(=O)c2cscc21 | 300 |
| O=C1N(Cc2ccccc2)c2cscc2S(=O)(=O)N1CCc1ccccc1 | 41400 |
| N#CCN1C(=O)N(Cc2cc(F)cc(F)c2)S(=O)(=O)c2cscc21 | 8600 |
| N#CCN1C(=O)N(Cc2ccccc2)S(=O)(=O)c2cscc21 | 870 |
| O=C1N(Cc2ccccc2)c2cscc2S(=O)(=O)N1Cc1ccccn1 | 200 |
| CN1C(=O)N(Cc2cccc(Cl)c2)S(=O)(=O)c2cscc21 | 2100 |
| CCN1C(=O)N(Cc2ccccc2)S(=O)(=O)c2cscc21 | 2400 |
| CCN1C(=O)N(Cc2ccccn2)S(=O)(=O)c2cscc21 | 1100 |
| CCN1C(=O)N(c2cccc(Cl)c2)S(=O)(=O)c2cscc21 | 61300 |
| CCCN1C(=O)N(Cc2ccccc2)S(=O)(=O)c2cscc21 | 6100 |
| C=CCN1C(=O)N(Cc2ccccc2)S(=O)(=O)c2cscc21 | 6300 |
| N#CCCN1C(=O)N(Cc2ccccc2)S(=O)(=O)c2cscc21 | 4900 |
| O=C1N(c2cccc(Cl)c2)c2cscc2S(=O)(=O)N1Cc1ccccc1 | 1400 |
| O=C1N(c2ccc(Cl)cc2)c2cscc2S(=O)(=O)N1Cc1ccccc1 | 7400 |
| O=C1N(c2ccccc2Cl)c2cscc2S(=O)(=O)N1Cc1ccccc1 | 100 |
| C#CCN1C(=O)N(Cc2ccccc2)S(=O)(=O)c2cscc21 | 960 |
| N#CCN1C(=O)N(CCc2ccccc2)S(=O)(=O)c2cscc21 | 10900 |
| N#CCN1C(=O)N(Cc2ccccn2)S(=O)(=O)c2cscc21 | 400 |
| CCN1C(=O)N(Cc2cccc(Cl)c2)S(=O)(=O)c2cscc21 | 90 |
| O=C1N(Cc2ccccc2)c2cscc2S(=O)(=O)N1Cc1ccccc1 | 2200 |
| C#CCN1C(=O)N(Cc2cccc(Cl)c2)S(=O)(=O)c2cscc21 | 90 |
| N#CCN1C(=O)N(Cc2cccc(Br)c2)S(=O)(=O)c2cscc21 | 50 |
| CCN1C(=O)N(Cc2ccccc2Cl)S(=O)(=O)c2cscc21 | 7600 |
| N#CCN1C(=O)N(Cc2cccnc2)S(=O)(=O)c2cscc21 | 800 |
| CCOC(=O)CN1C(=O)N(Cc2ccccc2)S(=O)(=O)c2cscc21 | 7300 |
| CCN1C(=O)N(CCc2ccccc2)S(=O)(=O)c2cscc21 | 3600 |
| CN1C(=O)N(Cc2ccccc2)S(=O)(=O)c2cscc21 | 2700 |
